Results as given in the supplement of paper PMC11208160.

Test: recombinant UMI read abundance after kanamycin selection (control-corrected) (log10(CPM+1)); higher = more efficient recombination; extreme values may be limits of the assay; sequences stand for … in AGTGCAGAGAAAATCGGCCAGTTTTCTCTGCCTGCAGTCCGCATGCCGTGGGACCCCTTGGGTTCTAACCTGTTGCCTAGATTTATGCAGCGGACTGCCTTTCTCCCAAAGTGATAAACCGG…AGGTTGGTTTCACT; site = the 11-nt donor
In short: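 Values, expressed as log10(CPM+1), derive from recombinant UMI counts converted to CPM, averaged across replicates and scaled by control-derived factors. Plating was with IPTG (0.07 mM) plus kanamycin or unselected, two replicates each. The screen pooled donor and donor-binding-loop pairs for the IS621 bridge recombinase in Escherichia coli.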
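Also: IS621 bridge recombinase in Escherichia coli cells against a fixed T5 target plasmid.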

Row | Sequence | recombinant UMI read abundance (log10)
1 | CGTTAGACATGGACCGGTTTTCCCGGTAATCCGTATTTGAT (site CGTTAGACTCT) | 0.00897
2 | CGTTAGACATGGACCGGTTTTCCCGGTAATCCGTATTTGAT (site CGTTAGACTGT) | 0
3 | CGTTAGACATGGACCGGTTTTCCCGGTAATCCGTATTTGAT (site CGTTAGACTTT) | 0.0167
4 | CGTTATCCATGGACCGGTTTTCCCGGTAATCCGTATTTGCG (site CGTTATCCTCG) | 0.766
5 | CGTTCCACATGGACCGGTTTTCCCGGTAATCCGTATTTGTG (site CGTTCCACTCA) | 0.0103
6 | CGTTGACCATGGACCGGTTTTCCCGGTAATCCGTATTTGGA (site CGTTGACCTTC) | 0.0127
7 | CGTTGATCATGGACCGGTTTTCCCGGTAATCCGTATTTGCT (site CGATCATCTAG) | 0.00695
8 | CGTTGATCATGGACCGGTTTTCCCGGTAATCCGTATTTGCT (site CGTTGATCTAG) | 2.78
9 | CGTTGGTCATGGACCGGTTTTCCCGGTAATCCGTATTTGCA (site CGTTGGTCTTG) | 1.29
10 | CGTTTCGCATGGACCGGTTTTCCCGGTAATCCGTATTTGGA (site CGTTTCGCTTC) | 0.0198
11 | CGTTTGGCATGGACCGGTTTTCCCGGTAATCCGTATTTGGT (site CGTTTGGCTAA) | 0.0435
12 | CGTTTGGCATGGACCGGTTTTCCCGGTAATCCGTATTTGGT (site CGTTTGGCTAC) | 1.31
13 | CGTTTGGCATGGACCGGTTTTCCCGGTAATCCGTATTTGGT (site CGTTTGGCTAG) | 0.00668
14 | CGTTTGGCATGGACCGGTTTTCCCGGTAATCCGTATTTGGT (site CGTTTGGCTAT) | 0.959
15 | CGTTTGGCATGGACCGGTTTTCCCGGTAATCCGTATTTGTT (site CGTTTGGCTAA) | 0.693
16 | CGTTTGGCATGGACCGGTTTTCCCGGTAATCCGTATTTGTT (site CGTTTGGCTAC) | 0.0131
17 | CGTTTGGCATGGACCGGTTTTCCCGGTAATCCGTATTTGTT (site CGTTTGGCTAG) | 0.989
18 | CGTTTGGCATGGACCGGTTTTCCCGGTAATCCGTATTTGTT (site CGTTTGGCTAT) | 0.033
19 | CGTTTGTCATGGACCGGTTTTCCCGGTAATCCGTATTTGCT (site CGTTTGACTAG) | 0
20 | CGTTTGTCATGGACCGGTTTTCCCGGTAATCCGTATTTGCT (site CGTTTGCCTAG) | 0
21 | CGTTTGTCATGGACCGGTTTTCCCGGTAATCCGTATTTGCT (site CGTTTGGCTAG) | 0
22 | CGTTTGTCATGGACCGGTTTTCCCGGTAATCCGTATTTGCT (site CGTTTGTCTAG) | 1.92
23 | CGTTTTGCATGGACCGGTTTTCCCGGTAATCCGTATTTGCT (site CGTTTAGCTAG) | 0
24 | CGTTTTGCATGGACCGGTTTTCCCGGTAATCCGTATTTGCT (site CGTTTCGCTAG) | 0
25 | CGTTTTGCATGGACCGGTTTTCCCGGTAATCCGTATTTGCT (site CGTTTGGCTAG) | 0

Row | Sequence | recombinant UMI read abundance (log10)
26 | CGTTTTGCATGGACCGGTTTTCCCGGTAATCCGTATTTGCT (site CGTTTTGCTAG) | 0.543
27 | CTAAAAGCATGGACCGGTTTTCCCGGTAATCCGTATTTGGC (site CTAAAAGCTGC) | 0
28 | CTAAAATCATGGACCGGTTTTCCCGGTAATCCGTATTTGAC (site CTAAAATCTGT) | 2.03
29 | CTAAAATCATGGACCGGTTTTCCCGGTAATCCGTATTTGAC (site CTAGTATCTGT) | 0.0803
30 | CTAAGAACATGGACCGGTTTTCCCGGTAATCCGTATTTGAA (site CTAAGAACTTT) | 2.44
31 | CTAAGGCCATGGACCGGTTTTCCCGGTAATCCGTATTTGAC (site ATAAGGCCTGT) | 0
32 | CTAAGGCCATGGACCGGTTTTCCCGGTAATCCGTATTTGAC (site CTAAGGCCTGT) | 0.577
33 | CTAAGGCCATGGACCGGTTTTCCCGGTAATCCGTATTTGAC (site GTAAGGCCTGT) | 0
34 | CTAAGGCCATGGACCGGTTTTCCCGGTAATCCGTATTTGAC (site TTAAGGCCTGT) | 0
35 | CTAATAACATGGACCGGTTTTCCCGGTAATCCGTATTTGGA (site CTAATAACTTC) | 2.05
36 | CTAATAACATGGACCGGTTTTCCCGGTAATCCGTATTTGGA (site CTACTAACTTC) | 0.337
37 | CTAATAACATGGACCGGTTTTCCCGGTAATCCGTATTTGGA (site CTAGTAACTTC) | 0.0598
38 | CTAATAACATGGACCGGTTTTCCCGGTAATCCGTATTTGGA (site CTATTAACTTC) | 1.14
39 | CTAATTACATGGACCGGTTTTCCCGGTAATCCGTATTTGTG (site CTAATTACTCA) | 0.859
40 | CTACCGTCATGGACCGGTTTTCCCGGTAATCCGTATTTGGG (site CTACCGTCTCC) | 0.901
41 | CTACCTACATGGACCGGTTTTCCCGGTAATCCGTATTTGAG (site CTACCTACTCT) | 1.04
42 | CTACCTACATGGACCGGTTTTCCCGGTAATCCGTATTTGAG (site CTCCCTACTCT) | 0.0123
43 | CTACCTACATGGACCGGTTTTCCCGGTAATCCGTATTTGAG (site CTGCCTACTCT) | 0.00249
44 | CTACCTACATGGACCGGTTTTCCCGGTAATCCGTATTTGAG (site CTTCCTACTCT) | 0.0155
45 | CTACTAACATGGACCGGTTTTCCCGGTAATCCGTATTTGAA (site CTACTAACTTA) | 0.909
46 | CTACTAACATGGACCGGTTTTCCCGGTAATCCGTATTTGAA (site CTACTAACTTC) | 0.291
47 | CTACTAACATGGACCGGTTTTCCCGGTAATCCGTATTTGAA (site CTACTAACTTG) | 0
48 | CTACTAACATGGACCGGTTTTCCCGGTAATCCGTATTTGAA (site CTACTAACTTT) | 2.27
49 | CTACTAACATGGACCGGTTTTCCCGGTAATCCGTATTTGGA (site ATACTAACTTC) | 0.387
50 | CTACTAACATGGACCGGTTTTCCCGGTAATCCGTATTTGGA (site CAACTAACTTC) | 0.0111

Row | Sequence | recombinant UMI read abundance (log10)
51 | CTACTAACATGGACCGGTTTTCCCGGTAATCCGTATTTGGA (site CCACTAACTTC) | 0.567
52 | CTACTAACATGGACCGGTTTTCCCGGTAATCCGTATTTGGA (site CGACTAACTTC) | 0.339
53 | CTACTAACATGGACCGGTTTTCCCGGTAATCCGTATTTGGA (site CTAATAACTTC) | 1.38
54 | CTACTAACATGGACCGGTTTTCCCGGTAATCCGTATTTGGA (site CTACAAACTTC) | 0.00657
55 | CTACTAACATGGACCGGTTTTCCCGGTAATCCGTATTTGGA (site CTACCAACTTC) | 0.307
56 | CTACTAACATGGACCGGTTTTCCCGGTAATCCGTATTTGGA (site CTACGAACTTC) | 0.00735
57 | CTACTAACATGGACCGGTTTTCCCGGTAATCCGTATTTGGA (site CTACTAACTAC) | 0.0107
58 | CTACTAACATGGACCGGTTTTCCCGGTAATCCGTATTTGGA (site CTACTAACTCC) | 0.516
59 | CTACTAACATGGACCGGTTTTCCCGGTAATCCGTATTTGGA (site CTACTAACTGC) | 0
60 | CTACTAACATGGACCGGTTTTCCCGGTAATCCGTATTTGGA (site CTACTAACTTA) | 1.4
61 | CTACTAACATGGACCGGTTTTCCCGGTAATCCGTATTTGGA (site CTACTAACTTC) | 1.69
62 | CTACTAACATGGACCGGTTTTCCCGGTAATCCGTATTTGGA (site CTACTAACTTG) | 1.13
63 | CTACTAACATGGACCGGTTTTCCCGGTAATCCGTATTTGGA (site CTACTAACTTT) | 1.96
64 | CTACTAACATGGACCGGTTTTCCCGGTAATCCGTATTTGGA (site CTACTACCTTC) | 0.0182
65 | CTACTAACATGGACCGGTTTTCCCGGTAATCCGTATTTGGA (site CTACTAGCTTC) | 0.689
66 | CTACTAACATGGACCGGTTTTCCCGGTAATCCGTATTTGGA (site CTACTATCTTC) | 1.4
67 | CTACTAACATGGACCGGTTTTCCCGGTAATCCGTATTTGGA (site CTACTCACTTC) | 0.0167
68 | CTACTAACATGGACCGGTTTTCCCGGTAATCCGTATTTGGA (site CTACTGACTTC) | 0.00472
69 | CTACTAACATGGACCGGTTTTCCCGGTAATCCGTATTTGGA (site CTACTTACTTC) | 0.176
70 | CTACTAACATGGACCGGTTTTCCCGGTAATCCGTATTTGGA (site CTAGTAACTTC) | 0.141
71 | CTACTAACATGGACCGGTTTTCCCGGTAATCCGTATTTGGA (site CTATTAACTTC) | 1.29
72 | CTACTAACATGGACCGGTTTTCCCGGTAATCCGTATTTGGA (site CTCCTAACTTC) | 0.373
73 | CTACTAACATGGACCGGTTTTCCCGGTAATCCGTATTTGGA (site CTGCTAACTTC) | 0.331
74 | CTACTAACATGGACCGGTTTTCCCGGTAATCCGTATTTGGA (site CTTCTAACTTC) | 0.11
75 | CTACTAACATGGACCGGTTTTCCCGGTAATCCGTATTTGGA (site GTACTAACTTC) | 0.0739
